Data from US10336732B2, “1-heterocyclyl isochromanyl compounds and analogs for treating CNS disorders” (Sunovion Pharmaceuticals Inc., priority 2015, dated 2019).

Tested on: mice
Test: Neuropharmacological assay (SmartCube), behavioral signature of compound-treated mice
Format: in vivo
Details: i.p. 15 min before behavioral test, most efficacious dose(s) of 3 doses
Procedure, shortened: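 Read-out is an automated video-based behavioral signature, scored as per-class probabilities (e.g., anxiolytic, antidepressant) against reference compounds. Dosing was i.p. at three doses, 15 min pre-test, in NMP, polyethylene glycol and propylene glycol. Values shown are from the most efficacious dose(s).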

Which results are given for `Fc1ccc2c(c1)CCCO[C@H]2[C@H]1CCCN1` [Compound I-113, (R)-2-((R)-7-fluoro-1,3,4,5-tetrahydrobenzo[c]oxepin-1-yl)pyrrolidine]?
AD: ADHD (probability that behavioral signature matches class): + (LOQ ≤ + <5%); AG: analgesic (probability that behavioral signature matches class): ++ (5% ≤ ++ <25%); AX: anxiolytic (probability that behavioral signature matches class): ++ (5% ≤ ++ <25%); CE: cognitive enhancer (probability that behavioral signature matches class): ++ (5% ≤ ++ <25%); DP: anti-depressant (probability that behavioral signature matches class): +++ (25% ≤ +++ <50%); HA: hallucinogen (probability that behavioral signature matches class): + (LOQ ≤ + <5%); MS: mood stabilizer (probability that behavioral signature matches class): + (LOQ ≤ + <5%); PS: anti-psychotic (probability that behavioral signature matches class): ++ (5% ≤ ++ <25%); SD: sedative hypnotic (probability that behavioral signature matches class): ++ (5% ≤ ++ <25%); UN: uncharacterized CNS activity (probability that behavioral signature matches class): + (LOQ ≤ + <5%); XG: anxiogenic (probability that behavioral signature matches class): + (LOQ ≤ + <5%)

Which “AD: ADHD (probability that behavioral signature matches class)” value (“AD: ADHD” for short) does the source give for `c1ccc2c(c1)CCO[C@@H]2C1CNC1` [Compound I-114, (R)-3-(isochroman-1-yl)azetidine] here?
Its value is “+ (LOQ ≤ + <5%)”.

What about the “AG: analgesic (probability that behavioral signature matches class)” value (“AG: analgesic” for short) of the same compound?
The value was “++ (5% ≤ ++ <25%)”.

And the “AX: anxiolytic (probability that behavioral signature matches class)” value (from here on “AX: anxiolytic”)?
Its value is “++ (5% ≤ ++ <25%)”.

What about the “CE: cognitive enhancer (probability that behavioral signature matches class)” value (shortened to “CE: cognitive enhancer”) of the same compound?
The value was “++ (5% ≤ ++ <25%)”.

And the “DP: anti-depressant (probability that behavioral signature matches class)” value (“DP: anti-depressant” below)?
Its value is “+++ (25% ≤ +++ <50%)”.

And the “HA: hallucinogen (probability that behavioral signature matches class)” value (shortened to “HA: hallucinogen”)?
Its value is “+ (LOQ ≤ + <5%)”.

What about the “MS: mood stabilizer (probability that behavioral signature matches class)” value (from here on “MS: mood stabilizer”) of the same compound?
The value was “+ (LOQ ≤ + <5%)”.

And the “PS: anti-psychotic (probability that behavioral signature matches class)” value (“PS: anti-psychotic” below)?
Its value is “++ (5% ≤ ++ <25%)”.

And the “SD: sedative hypnotic (probability that behavioral signature matches class)” value (from here on “SD: sedative hypnotic”)?
Its value is “++ (5% ≤ ++ <25%)”.

And the “UN: uncharacterized CNS activity (probability that behavioral signature matches class)” value (from here on “UN: uncharacterized CNS activity”)?
Its value is “+ (LOQ ≤ + <5%)”.

And the “XG: anxiogenic (probability that behavioral signature matches class)” value (“XG: anxiogenic” for short)?
The value was “+ (LOQ ≤ + <5%)”.

`c1ccc2c(c1)CCO[C@H]2C1CNC1` [Compound I-115, (S)-3-(isochroman-1-yl)azetidine] was tested. Which “AD: ADHD” value did it give?
The value was “+ (LOQ ≤ + <5%)”.

And the “AG: analgesic” value?
Its value is “++ (5% ≤ ++ <25%)”.

What about the “AX: anxiolytic” value of the same compound?
The value was “++ (5% ≤ ++ <25%)”.

What about the “CE: cognitive enhancer” value of the same compound?
The value was “++ (5% ≤ ++ <25%)”.

And the “DP: anti-depressant” value?
Its value is “++ (5% ≤ ++ <25%)”.

What about the “HA: hallucinogen” value of the same compound?
Its value is “+ (LOQ ≤ + <5%)”.

What about the “MS: mood stabilizer” value of the same compound?
The value was “+ (LOQ ≤ + <5%)”.

What about the “PS: anti-psychotic” value of the same compound?
The value was “++ (5% ≤ ++ <25%)”.

What about the “SD: sedative hypnotic” value of the same compound?
The value was “++ (5% ≤ ++ <25%)”.

What about the “UN: uncharacterized CNS activity” value of the same compound?
Its value is “+++ (25% ≤ +++ <50%)”.

What about the “XG: anxiogenic” value of the same compound?
The value was “+ (LOQ ≤ + <5%)”.

Which “AD: ADHD” value does the source give for `Cc1ccc2c(c1)[C@@H](C1CNC1)OCC2` [Compound I-116, (R)-3-(7-methylisochroman-1-yl)azetidine] here?
Its value is “+ (LOQ ≤ + <5%)”.

What about the “AG: analgesic” value of the same compound?
Its value is “+ (LOQ ≤ + <5%)”.

And the “AX: anxiolytic” value?
The value was “++ (5% ≤ ++ <25%)”.

And the “CE: cognitive enhancer” value?
Its value is “+ (LOQ ≤ + <5%)”.

And the “DP: anti-depressant” value?
The value was “++ (5% ≤ ++ <25%)”.

What about the “HA: hallucinogen” value of the same compound?
Its value is “+ (LOQ ≤ + <5%)”.

What about the “MS: mood stabilizer” value of the same compound?
The value was “+ (LOQ ≤ + <5%)”.

What about the “PS: anti-psychotic” value of the same compound?
The value was “+++ (25% ≤ +++ <50%)”.

And the “SD: sedative hypnotic” value?
Its value is “++ (5% ≤ ++ <25%)”.

What about the “UN: uncharacterized CNS activity” value of the same compound?
The value was “+ (LOQ ≤ + <5%)”.

What about the “XG: anxiogenic” value of the same compound?
Its value is “+ (LOQ ≤ + <5%)”.
